Experimental data as given in patent US10501449B2 (priority 2018, dated 2019).

How the values were obtained:
[1] = target: hROMK (human Kir1.1) (Homo sapiens (Human), UniProt P48048); assay: cell-based; conditions: CHO T-Rex hROMK stable cell line; thallium flux; 10-point concentration response curve; read-out: Human ROMK Th Flux IC50
Description: Solutions and reagents: Thallium flux assay was performed using FluxOR kit (F10017, Life Technologies). Loading buffer, assay buffer and stimulus buffer were prepared using kit components. HBSS (Hank's balanced salt solution, Cat#14025-092) was purchased separately from Life Technologies.
To prepare 10 ml of loading buffer: 10 μl of FluxOR dye (reconstituted in DMSO) was first added to 100 μl of powerload concentrate and this mix along with 100 μl of Probenicid (100×) was then added to 9.79 ml of HBSS. Assay buffer (10 ml) was prepared by addition of 2 ml of FluxOR chloride free buffer (5×), 100 μl of Probenicid (100×), and 0.2 ml of Ouabain (13.77 mM) to 7.7 ml of deionized water. Stimulus buffer was composed of 15 mM Tl2SO4, 0.75 mM K2SO4 in FluxOR chloride free buffer (diluted to 1× using deionized water). The final concentration of Tl2SO4 and K2SO4 in the assay plate was 3 mM and 0.15 mM, respectively.
Plating and induction of cells: The CHO T-Rex hROMK (human Kir1.1) stable cell line was maintained in Ham's F12 media supplemented with 10% FBS, 1% Penicillin-Streptomycin, 500 μg/ml Zeocin and 10 μg/ml Blasticidin at 37° C. in a 5% CO2 incubator. One day before the experiment, the cells were dissociated by incubation with Versene solution (15040-066, Life Technologies) for 10 minutes at 37° C. followed by addition of growth media. The cell suspension was centrifuged at 1200 rpm for 5 min. After discarding the supernatant, the cells were resuspended in fresh growth media and cell concentration was determined using a hemocytometer. Next, 0.5 μg/ml of Doxycycline was added to the cell suspension to induce hROMK channel expression and 50 μl (10,000 cells/well) of cell suspension was added to each well of a poly-D lysine coated 384 well black, optically clear bottom plate (6007718, Perkin Elmer). The assay plate was kept at 37° C. in a 5% CO2 incubator.
Assay protocol: On the day of experiment, media was removed and loading buffer was added (30 μl/well) to the assay plate. The cells were incubated in the loading buffer for 30 minutes at 37° C. The loading buffer was then replaced by assay buffer (30 μl/well) followed by addition of test compounds or controls. The cells were incubated with compounds for 30 minutes and the plate was then mounted on FlexStation (Molecular Devices) for fluorescence read out with excitation and emission wavelengths at 488 and 525 nm, respectively. Each well was read for 90 sec at 2 sec interval and the stimulus buffer was added after 20 seconds of baseline recording. The final DMSO concentration was either 0.5 or 1% in the assay plate. Positive and negative controls were defined by addition of DMSO or 3 μM of a standard ROMK inhibitor, respectively, to the wells instead of a test compound.
A 10-point concentration response curve was used to estimate the IC50 value of test compounds.

[2] = target: hERG channels (Homo sapiens (Human), UniProt Q12809); assay: hERG Manual Patch Clamp Assay; type: cell-based; conditions: human, HEK 293 cells stably expressing hERG channels, pH 7.4, 1 uM, read-out: hERG EP % Inh @ 1 uM
hERG channels, sequence (Q12809 whole entry): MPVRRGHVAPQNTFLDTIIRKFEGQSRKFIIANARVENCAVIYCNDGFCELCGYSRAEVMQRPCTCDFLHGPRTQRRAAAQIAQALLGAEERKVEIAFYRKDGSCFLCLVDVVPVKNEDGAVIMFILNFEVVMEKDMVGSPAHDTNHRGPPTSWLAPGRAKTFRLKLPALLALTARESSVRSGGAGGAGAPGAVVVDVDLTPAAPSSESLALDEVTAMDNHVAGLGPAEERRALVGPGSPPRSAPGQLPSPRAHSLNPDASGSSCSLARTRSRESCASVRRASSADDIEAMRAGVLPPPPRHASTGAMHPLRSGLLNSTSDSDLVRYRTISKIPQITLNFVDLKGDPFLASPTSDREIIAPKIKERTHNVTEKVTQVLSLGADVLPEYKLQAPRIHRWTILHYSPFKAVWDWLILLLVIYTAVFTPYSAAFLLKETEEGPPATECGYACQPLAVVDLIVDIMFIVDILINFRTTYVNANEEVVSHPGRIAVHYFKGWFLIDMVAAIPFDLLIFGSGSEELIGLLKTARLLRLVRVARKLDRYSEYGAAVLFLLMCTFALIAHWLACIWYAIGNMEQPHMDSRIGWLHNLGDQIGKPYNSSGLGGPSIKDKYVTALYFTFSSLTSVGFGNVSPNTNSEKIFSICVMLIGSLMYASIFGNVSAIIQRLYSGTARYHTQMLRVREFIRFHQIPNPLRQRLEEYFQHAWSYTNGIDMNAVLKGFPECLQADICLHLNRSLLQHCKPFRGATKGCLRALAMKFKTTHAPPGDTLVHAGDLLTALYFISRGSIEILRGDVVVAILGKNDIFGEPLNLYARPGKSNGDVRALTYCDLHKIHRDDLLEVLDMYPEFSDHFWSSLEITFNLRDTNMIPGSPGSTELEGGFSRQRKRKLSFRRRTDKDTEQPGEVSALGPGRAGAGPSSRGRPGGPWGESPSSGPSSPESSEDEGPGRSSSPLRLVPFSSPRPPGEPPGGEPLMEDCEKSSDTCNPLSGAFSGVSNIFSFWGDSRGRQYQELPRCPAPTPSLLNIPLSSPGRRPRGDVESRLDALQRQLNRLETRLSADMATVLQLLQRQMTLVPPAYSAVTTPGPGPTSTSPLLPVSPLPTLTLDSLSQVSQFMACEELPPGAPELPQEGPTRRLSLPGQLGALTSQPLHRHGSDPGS

hROMK (human Kir1.1), sequence (P48048 whole entry): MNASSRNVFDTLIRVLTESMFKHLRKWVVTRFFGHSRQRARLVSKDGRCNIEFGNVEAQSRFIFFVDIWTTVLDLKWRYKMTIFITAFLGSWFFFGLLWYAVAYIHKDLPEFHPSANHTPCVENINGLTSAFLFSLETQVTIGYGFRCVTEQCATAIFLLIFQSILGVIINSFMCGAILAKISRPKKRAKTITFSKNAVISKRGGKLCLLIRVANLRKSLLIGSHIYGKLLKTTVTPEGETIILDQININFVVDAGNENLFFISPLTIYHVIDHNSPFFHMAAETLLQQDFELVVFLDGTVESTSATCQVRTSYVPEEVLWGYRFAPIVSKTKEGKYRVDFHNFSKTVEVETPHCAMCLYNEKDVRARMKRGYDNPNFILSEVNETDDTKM

SMILES	IC50 [1] [nM]	inhibition at 1 µM [2] [%]
Cc1cc(-c2nc(CN3C[C@@H](c4ccc5c(c4C)COC5=O)N[C@@H](C)C3)no2)ncc1C#N [Example 259-I, 4-methyl-6-(3-(((3S,5R)-3-methyl-5-(4-methyl-1-oxo-1,3-dihydroisobenzofuran-5-yl)piperazin-1-yl)methyl)-1,2,4-oxadiazol-5-yl)nicotinonitrile]	53	8.6
Cc1nc(-n2cnc(CN3C[C@@H](c4ccc5c(c4C)COC5=O)N[C@@H](C)C3)c2)nc(C)c1C#N [Example 95-I, 4,6-dimethyl-2-(4-(((3S,5R)-3-methyl-5-(4-methyl-1-oxo-1,3-dihydroisobenzofur-an-5-yl)piperazin-1-yl)methyl)-1H-imidazol-1-yl)pyrimidine-5-carbonitrile]	26	13
Cc1cn(-c2ccc(CN3CCN[C@H](c4ccc5c(c4C)COC5=O)C3)cn2)nn1 [Example 222-I, (R)-4-methyl-5-(4-((6-(4-methyl-1H-1,2,3-triazol-1-yl)pyridin-3-yl)methyl)piperazin-2-yl)isobenzofuran-1(3H)-one]	60	12
Cc1cn(-c2ccc(CN3CCN[C@H](c4ccc5c(c4C)COC5=O)C3)nn2)cn1 [Example 153-I, (R)-4-methyl-5-(4-((6-(4-methyl-1H-imidazol-1-yl)pyridazin-3-yl)methyl)piperazin-2-yl)isobenzofuran-1(3H)-one]		10
Cc1cc(-n2cc(CN3CCCC(c4ccc5c(c4C)COC5=O)C3)cn2)ncc1C#N (single isomer, unassigned) [Example 197-I, 4-methyl-6-(4-((3-(4-methyl-1-oxo-1,3-dihydroisobenzofuran-5-yl)piperidin-1-yl)methyl)-1H-pyraozl-1-yl)nicotinonitrile]	15	75
Cc1c([C@@H]2CN(Cc3cnc(-n4cnc(C#N)c4)nc3)CCN2)ccc2c1COC2=O [Example 215-I]	11	29
CCc1nn(-c2ccc(CN3CCN[C@H](c4ccc5c(c4C)COC5=O)C3)cn2)cc1C#N [Example 226-I, (R)-3-ethyl-1-(5-((3-(4-methyl-1-oxo-1,3-dihydroisobenzofuran-5-yl)piperazin-1-yl)methyl)pyridin-2-yl)-1H-pyrazole-4-carbonitrile]	14	33
Cc1cc(-n2cnc(CN3CC[C@@H](O)[C@H](c4ccc5c(c4C)COC5=O)C3)c2)ncc1C#N [Example 163-I, 6-(4-(((3R,4R)-4-hydroxy-3-(4-methyl-1-oxo-1,3-dihydroisobenzofuran-5-yl)piperidin-1-yl)methyl)-1H-imidazol-1-yl)-4-methylnicotinonitrile]	29	4.5
COc1cc(-n2cc(CN3CCO[C@H](c4ccc5c(c4C)COC5=O)C3)cn2)ccc1C#N [Example 49-I, (R)-2-methoxy-4-(4-((2-(4-methyl-1-oxo-1,3-dihydroisobenzofuran-5-yl)morpholino)methyl)-1H-pyrazol-1-yl) benzonitrile]		27
CCOc1cc(-n2cc(CN3CCN[C@H](c4ccc5c(c4C)COC5=O)C3)cn2)ncc1C#N [Example 137-I, (R)-4-ethoxy-6-(4-((3-(4-methyl-1-oxo-1,3-dihydroisobenzofuran-5-yl)piperazin-1-yl)methyl)-1H-pyrazol-1-yl)nicotinonitrile]	26	23
Cc1cc(-n2cc(CN3CCN[C@H](c4ccc5c(c4)COC5=O)C3)cn2)ncc1C#N [Example 239-I, (R)-4-methyl-6-(4-((3-(1-oxo-1,3-dihydroisobenzofuran-5-yl)piperazin-1-yl)methyl)-1H-pyrazol-1-yl)nicotinonitrile]	63	18
COc1cc(-c2cc(CN3C[C@@H](c4ccc5c(c4C)COC5=O)N[C@@H](C)C3)on2)ncc1C#N [Example 269-I, 4-methoxy-6-(5-(((3S,5R)-3-methyl-5-(4-methyl-1-oxo-1,3-dihydroisobenzofuran-5-yl)piperazin-1-yl)methyl)isoxazol-3-yl)nicotinonitrile]	24	9.5
Cc1cc(N2CCC(CN3CCN[C@H](c4ccc5c(c4C)COC5=O)C3)C2)ncc1C#N (single isomer, unassigned) [Example 156-I]	14	51
Cc1c([C@@H]2CN(Cc3cnn(-c4ccc5oc(=O)n(C)c5c4)c3)CCO2)ccc2c1COC2=O [Example 25-I, (R)-3-methyl-5-(4-((2-(4-methyl-1-oxo-1,3-dihydroisobenzofuran-5-yl)morpholino)methyl)-1H-pyrazol-1-yl) benzo[d]oxazol-2(3H)-one]	51	8.7
Cc1c([C@@H]2CN(Cc3cnn(-c4ccc(C#N)nc4)c3)CCO2)ccc2c1COC2=O [Example 48-I, (R)-5-(4-((2-(4-methyl-1-oxo-1,3-dihydroiso-benzofuran-5-yl)morpho-lino)methyl)-1H-pyrazol-1-yl)picolinonitrile]		78
COc1cc(-n2cc(CN3CC(CO)NC(c4ccc5c(c4C)COC5=O)C3)cn2)ncc1C#N (single isomer, unassigned) [Example 89-III]		14
Cc1c([C@@H]2CN(Cc3cnc(-n4cnc(C(F)(F)F)c4)nc3)CCN2)ccc2c1COC2=O [Example 236-I, (R)-4-methyl-5-(4-((2-(4-(triflouromethyl)-1H-imidazol-1-yl)pyrimidin-5-yl)methyl)piperazin-2-yl)isobenzofuran-1(3H)-one]		20
COc1cc(-n2ncc(CN3CC[C@@H](O)[C@H](c4ccc5c(c4C)COC5=O)C3)n2)ncc1C#N [Example 111-I, 6-(4-(((3R,4R)-4-hydroxy-3-(4-methyl-1-oxo-1,3-dihydroisobenzofur-an-5-yl)piperidin-1-yl)methyl)-2H-1,2,3-triazol-2-yl)-4-methoxynicotinonit-rile]		5.1
Cc1cc(-n2cc(CN3CCNC(c4ccc5c(c4C)COC5=O)C3C)cn2)ncc1C#N (centres unmarked) [Example 115-I, 4-methyl-6-(4-((2-methyl-3-(4-methyl-1-oxo-1,3-dihydroisobenzofuran-5-yl)piperazin-1-yl)methyl)-1H-pyrazol-1-yl)nicotinonitrile]		45
Cc1cc(-n2cnc(CN3C[C@@H](c4ccc5c(c4C)COC5=O)N[C@@H](C)C3)c2)ncc1C#N [Example 98-I, 4-methyl-6-(4-(((3S,5R)-3-methyl-5-(4-methyl-1-oxo-1,3-dihydroisobenzofur-an-5-yl)piperazin-1-yl)methyl)-1H-imidazol-1-yl)nicotinonitrile]		9.3
Cc1c([C@@H]2CN(Cc3cn(-c4ccnc(C(F)F)c4)c(=O)n3C)C[C@H](C)N2)ccc2c1COC2=O [Example 276-I, 1-(2-(difluoromethyl)pyridin-4-yl)-3-methyl-4-(((3S,5R)-3-methyl-5-(4-methyl-1-oxo-1,3-dihydroisobenzofuran-5-yl)piperazin-1-yl)methyl)-1,3-dihydro-2H-imidazol-2-one]		5.4
Cc1cc(-n2cc(CN3CC(c4ccc5c(c4C)COC5=O)OC(C)(C)C3)cn2)ncc1C#N (single isomer, unassigned) [Example 256-II, 6-(4-((2,2-dimethyl-6-(4-methyl-1-oxo-1,3-dihydroisobenzofuran-5-yl)morpholino)methyl)-1H-pyrazol-1-yl)-4-methylnicotinonitrile]		13
Cc1c([C@@H]2CN(Cc3cnn(-c4cc(C(F)(F)F)c(C#N)cn4)c3)C[C@H](C)N2)ccc2c1COC2=O [Example 196-I, 6-(4-(((3S,5R)-3-methyl-5-(4-methyl-1-oxo-1,3-dihydroisobenzofuran-5-yl)piperazin-1-yl)methyl)-1H-pyraozl-1-yl)-4-(trifluoromethyl)nicotinonitrile]		18
Cc1cc(-n2nc(C)c(CN3CCN[C@H](c4ccc5c(c4C)COC5=O)C3)n2)ncc1C#N [Example 169-I, (R)-4-methyl-6-(4-methyl-5-((3-(4-methyl-1-oxo-1,3-dihydroisobenzofuran-5-yl)piperazin-1-yl)methyl)-2H-1,2,3-triazol-2-yl)nicotinonitrile]		12
[2H]C([2H])([2H])Oc1cc(-n2cc(CN3CCN[C@H](c4ccc5c(c4C)COC5=O)C3)nn2)ncc1C#N [Example 263-I, (R)-4-(methoxy-d3)-6-(4-((3-(4-methyl-1-oxo-1,3-dihydroisobenzofuran-5-yl)piperazin-1-yl)methyl)-1H-1,2,3-triazol-1-yl)nicotinonitrile]		10
Cc1cc(-n2cc(CN3CC(=O)N[C@H](c4ccc5c(c4C)COC5=O)C3)cn2)ncc1C#N [Example 15-I, (R)-4-methyl-6-(4-((3-(4-methyl-1-oxo-1,3-dihydroisobenzofuran-5-yl)-5-oxopiperazin-1-yl)methyl)-1H-pyrazol-1-yl)nicotinonitrile]		5.8
COc1cc(N2CCC(CN3CCN[C@H](c4ccc5c(c4C)COC5=O)C3)C2)ncc1C#N (single isomer, unassigned) [Example 154-I]		43
CC(=O)N1CCN(Cc2cnn(-c3cc(C)c(C#N)cn3)c2)C[C@H]1c1ccc2c(c1C)COC2=O [Example 68-I, (R)-6-(4-((4-acetyl-3-(4-methyl-1-oxo-1,3-di-hydroisobenzofuran-5-yl)piperazin-1-yl)methyl)-1H-pyrazol-1-yl)-4-methylnicotinonitrile]	1700	
Cc1cc(-n2cc(CN3CCN[C@H](c4ccc5c(c4C)COC5=O)C3)nn2)nc(C)c1C#N [Example 186-I, (R)-2,4-dimethyl-6-(4-((3-(4-methyl-1-oxo-1,3-dihydroisobenzofuran-5-yl)piperazin-1-yl)methyl)-1H-1,2,3-triazol-1-yl)nicotinonitrile]	18	
